In patent publication US5843889A, “Glycopeptide antibiotic derivatives” (Eli Lilly and Company, priority 1997, dated 1998) one finds MIC data, which are given here for 19 molecules.

Holding throughout (assay): MIC, standard broth micro-dilution assay
Type in all cases: cell-based
In general terms: Broth dilution looks for growth in wells or tubes with falling amounts of substance.

Assay [1] has as its system Entercoccus faecalis 2041. As to the method: (§1) The formula I compounds have in vitro and in vivo activity against Gram-positive pathogenic bacteria. The MIC's were determined using a standard broth micro-dilution assay.
A further assay concerns Entercoccus faecalis 276. As to the method: as §1
Assay [2] concerns Entercoccus gallinarum 245. The procedure:
as §1

Converted amounts (≈) assume the structure as drawn.

As a reminder, the MIC is the least concentration at which growth counts as inhibited. A high value points to a need for much substance. Take `CNC(CC(C)C)C(=O)NC1C(=O)NC(CC(N)=O)C(=O)NC2C(=O)NC3C(=O)NC(C(=O)NC(C(=O)O)c4cc(O)cc(O)c4-c4cc3ccc4O)C(OC3CC(C)(N)C(O)C(C)O3)c3ccc(c(Cl)c3)Oc3cc2cc(c3OC2OC(CO)C(O)C(O)C2OC2CC(C)(NCc3ccc(C)c(C)c3)C(O)C(C)O2)Oc2ccc(cc2Cl)C1O` (centres unmarked) [Compound 76, 3,4-dimethylbenzyl]: the MIC was no more than 0.06 µg/mL in assay [1], no more than 0.06 µg/mL against Entercoccus faecalis 276 and 4 µg/mL (≈ 2.34 µM) in assay [2].
In the case of `CNC(CC(C)C)C(=O)NC1C(=O)NC(CC(N)=O)C(=O)NC2C(=O)NC3C(=O)NC(C(=O)NC(C(=O)O)c4cc(O)cc(O)c4-c4cc3ccc4O)C(OC3CC(C)(N)C(O)C(C)O3)c3ccc(c(Cl)c3)Oc3cc2cc(c3OC2OC(CO)C(O)C(O)C2OC2CC(C)(NCc3ccc4cc(OC)ccc4c3)C(O)C(C)O2)Oc2ccc(cc2Cl)C1O` (centres unmarked) [Compound 65, 6-methoxy-2-naphthylmethyl], the MIC in assay [1] is no more than 0.06 µg/mL; against Entercoccus faecalis 276, 0.5 µg/mL (≈ 0.284 µM); in assay [2] it was 4 µg/mL (≈ 2.27 µM).
As to `CNC(CC(C)C)C(=O)NC1C(=O)NC(CC(N)=O)C(=O)NC2C(=O)NC3C(=O)NC(C(=O)NC(C(=O)O)c4cc(O)cc(O)c4-c4cc3ccc4O)C(OC3CC(C)(N)C(O)C(C)O3)c3ccc(c(Cl)c3)Oc3cc2cc(c3OC2OC(CO)C(O)C(O)C2OC2CC(C)(NCc3ccc(OCc4ccccc4)c(OCc4ccccc4)c3)C(O)C(C)O2)Oc2ccc(cc2Cl)C1O` (centres unmarked) [Compound 53], the MIC in assay [1] worked out at 1 µg/mL (≈ 0.528 µM); in the assay with Entercoccus faecalis 276, 8 µg/mL (≈ 4.22 µM); in assay [2], 2 µg/mL (≈ 1.06 µM).
As for `CNC(CC(C)C)C(=O)NC1C(=O)NC(CC(N)=O)C(=O)NC2C(=O)NC3C(=O)NC(C(=O)NC(C(=O)O)c4cc(O)cc(O)c4-c4cc3ccc4O)C(OC3CC(C)(N)C(O)C(C)O3)c3ccc(c(Cl)c3)Oc3cc2cc(c3OC2OC(CO)C(O)C(O)C2OC2CC(C)(NCc3ccc(-c4ccc(OC)cc4)s3)C(O)C(C)O2)Oc2ccc(cc2Cl)C1O` (centres unmarked) [Compound 71, 5-[4-methoxyphenyl]-2-thienylinethyl], the MIC in assay [1] worked out at 1 µg/mL (≈ 0.557 µM); against Entercoccus faecalis 276, 2 µg/mL (≈ 1.11 µM); in assay [2], 8 µg/mL (≈ 4.46 µM).
The matching figures for `CNC(CC(C)C)C(=O)NC1C(=O)NC(CC(N)=O)C(=O)NC2C(=O)NC3C(=O)NC(C(=O)NC(C(=O)O)c4cc(O)cc(O)c4-c4cc3ccc4O)C(OC3CC(C)(N)C(O)C(C)O3)c3ccc(c(Cl)c3)Oc3cc2cc(c3OC2OC(CO)C(O)C(O)C2OC2CC(C)(NCCCCCCCCOc3ccc(OC)cc3)C(O)C(C)O2)Oc2ccc(cc2Cl)C1O` (centres unmarked) [Compound 200, 8-[4-methoxyphenoxy]octyl]: no more than 0.06 µg/mL, 0.5 µg/mL (≈ 0.274 µM) and 2 µg/mL (≈ 1.09 µM).
Consider `CN[C@H](CC(C)C)C(=O)N[C@H]1C(=O)N[C@@H](CC(N)=O)C(=O)N[C@H]2C(=O)N[C@H]3C(=O)N[C@H](C(=O)N[C@H](C(=O)O)c4cc(O)cc(O)c4-c4cc3ccc4O)[C@H](O[C@H]3C[C@](C)(N)[C@@H](O)[C@H](C)O3)c3ccc(c(Cl)c3)Oc3cc2cc(c3O[C@@H]2O[C@H](CO)[C@@H](O)[C@H](O)[C@H]2O[C@H]2C[C@](C)(NCc3ccc(Oc4ccc(C(C)(C)C)cc4)cc3)[C@@H](O)[C@H](C)O2)Oc2ccc(cc2Cl)[C@H]1O` [Compound 96, 4-[4-t-butylphenoxy]benzyl], for which the figures for the MIC (in assay [1]; against Entercoccus faecalis 276; in assay [2]) were 1 µg/mL (≈ 0.546 µM), 0.5 µg/mL (≈ 0.273 µM) and 2 µg/mL (≈ 1.09 µM), respectively.
Consider `CCCCCCCCC#CCCCCCCNC1(C)CC(OC2C(Oc3c4cc5cc3Oc3ccc(cc3Cl)C(OC3CC(C)(N)C(O)C(C)O3)C3NC(=O)C(NC(=O)C5NC(=O)C(CC(N)=O)NC(=O)C(NC(=O)C(CC(C)C)NC)C(O)c5ccc(c(Cl)c5)O4)c4ccc(O)c(c4)-c4c(O)cc(O)cc4C(C(=O)O)NC3=O)OC(CO)C(O)C2O)OC(C)C1O` (centres unmarked) [Compound 207, 7-hexadecynyl], for which the MIC in the assay on Entercoccus faecalis 276 came out at 0.25 µg/mL (≈ 0.138 µM); in assay [2], 1 µg/mL (≈ 0.552 µM).
Turning to `C=CCCCCCCCCNC1(C)CC(OC2C(Oc3c4cc5cc3Oc3ccc(cc3Cl)C(OC3CC(C)(N)C(O)C(C)O3)C3NC(=O)C(NC(=O)C5NC(=O)C(CC(N)=O)NC(=O)C(NC(=O)C(CC(C)C)NC)C(O)c5ccc(c(Cl)c5)O4)c4ccc(O)c(c4)-c4c(O)cc(O)cc4C(C(=O)O)NC3=O)OC(CO)C(O)C2O)OC(C)C1O` (centres unmarked) [Compound 214, 9-decenyl], the results for the MIC (with Entercoccus faecalis 276; in assay [2]) were 0.25 µg/mL (≈ 0.144 µM) and 2 µg/mL (≈ 1.16 µM), respectively.
The corresponding values for `CNC(CC(C)C)C(=O)NC1C(=O)NC(CC(N)=O)C(=O)NC2C(=O)NC3C(=O)NC(C(=O)NC(C(=O)O)c4cc(O)cc(O)c4-c4cc3ccc4O)C(OC3CC(C)(N)C(O)C(C)O3)c3ccc(c(Cl)c3)Oc3cc2cc(c3OC2OC(CO)C(O)C(O)C2OC2CC(C)(NCc3ccc(OCCOC(C)(C)C)cc3)C(O)C(C)O2)Oc2ccc(cc2Cl)C1O` (centres unmarked) [Compound 154, 4-[2-t-butoxyethoxy]benzyl] are 0.5 µg/mL (≈ 0.278 µM) and 4 µg/mL (≈ 2.22 µM).
The matching figures for `CNC(CC(C)C)C(=O)NC1C(=O)NC(CC(N)=O)C(=O)NC2C(=O)NC3C(=O)NC(C(=O)NC(C(=O)O)c4cc(O)cc(O)c4-c4cc3ccc4O)C(OC3CC(C)(N)C(O)C(C)O3)c3ccc(c(Cl)c3)Oc3cc2cc(c3OC2OC(CO)C(O)C(O)C2OC2CC(C)(NCc3ccc(-c4ccccc4C)c(C)c3)C(O)C(C)O2)Oc2ccc(cc2Cl)C1O` (centres unmarked) [Compound 237, 4-[2-methylphenyl]-3-methylbenzyl]: 1 µg/mL (≈ 0.56 µM) and 1 µg/mL (≈ 0.56 µM).
`CNC(CC(C)C)C(=O)NC1C(=O)NC(CC(N)=O)C(=O)NC2C(=O)NC3C(=O)NC(C(=O)NC(C(=O)O)c4cc(O)cc(O)c4-c4cc3ccc4O)C(O)c3ccc(c(Cl)c3)Oc3cc2cc(c3OC2OC(CO)C(O)C(O)C2OC2CC(C)(NCc3ccc(-c4ccccc4)cc3)C(O)C(C)O2)Oc2ccc(cc2Cl)C1O` (centres unmarked) [Compound 181, 4-phenylbenzyl]: the MIC in the assay with Entercoccus faecalis 276 is 2 µg/mL (≈ 1.24 µM); in assay [2], no more than 0.06 µg/mL.
Regarding `CNC(CC(C)C)C(=O)NC1C(=O)NC(CC(N)=O)C(=O)NC2C(=O)NC3C(=O)NC(C(=O)NC(C(=O)O)c4cc(O)cc(O)c4-c4cc3ccc4O)C(OC3CC(C)(N)C(O)C(C)O3)c3ccc(c(Cl)c3)Oc3cc2cc(c3OC2OC(CO)C(O)C(O)C2OC2CC(C)(NCc3ccc4c(c3)CCO4)C(O)C(C)O2)Oc2ccc(cc2Cl)C1O` (stereo not drawn) [Compound 82, S-[2,3-dihydrobenzfuryl]methyl], the MIC was 0.5 µg/mL (≈ 0.29 µM) in assay [1] and no more than 0.06 µg/mL in the assay on Entercoccus faecalis 276.
Regarding `CNC(CC(C)C)C(=O)NC1C(=O)NC(CC(N)=O)C(=O)NC2C(=O)NC3C(=O)NC(C(=O)NC(C(=O)O)c4cc(O)cc(O)c4-c4cc3ccc4O)C(OC3CC(C)(N)C(O)C(C)O3)c3ccc(c(Cl)c3)Oc3cc2cc(c3OC2OC(CO)C(O)C(O)C2OC2CC(C)(NCc3c4ccccc4cc4ccccc34)C(O)C(C)O2)Oc2ccc(cc2Cl)C1O` (centres unmarked) [Compound 13, 9-anthranylmethyl], the figures for the MIC (in the assay with Entercoccus faecalis 276; in assay [2]) were 0.5 µg/mL (≈ 0.28 µM) and 0.25 µg/mL (≈ 0.14 µM), respectively.
Regarding `CNC(CC(C)C)C(=O)NC1C(=O)NC(CC(N)=O)C(=O)NC2C(=O)NC3C(=O)NC(C(=O)NC(C(=O)O)c4cc(O)cc(O)c4-c4cc3ccc4O)C(OC3CC(C)(N)C(O)C(C)O3)c3ccc(c(Cl)c3)Oc3cc2cc(c3OC2OC(CO)C(O)C(O)C2OC2CC(C)(NCC=Cc3ccccc3)C(O)C(C)O2)Oc2ccc(cc2Cl)C1O` (stereo not drawn) [Compound 38, trans-cinnamyl], the MIC is no more than 0.06 µg/mL in assay [1] and 0.5 µg/mL (≈ 0.293 µM) against Entercoccus faecalis 276.
For `CNC(CC(C)C)C(=O)NC1C(=O)NC(CC(N)=O)C(=O)NC2C(=O)NC3C(=O)NC(C(=O)NC(C(=O)O)c4cc(O)cc(O)c4-c4cc3ccc4O)C(OC3CC(C)(N)C(O)C(C)O3)c3ccc(c(Cl)c3)Oc3cc2cc(c3OC2OC(CO)C(O)C(O)C2OC2CC(C)(NCCc3ccc(Oc4ccccc4)cc3)C(O)C(C)O2)Oc2ccc(cc2Cl)C1O` (centres unmarked) [Compound 33, 4-phenoxyphenethyl], the minimum inhibitory concentration (MIC) (in assay [1]; against Entercoccus faecalis 276) was no more than 0.06 µg/mL each time.
On to `CNC(CC(C)C)C(=O)NC1C(=O)NC(CC(N)=O)C(=O)NC2C(=O)NC3C(=O)NC(C(=O)NC(C(=O)O)c4cc(O)cc(O)c4-c4cc3ccc4O)C(OC3CC(C)(N)C(O)C(C)O3)c3ccc(c(Cl)c3)Oc3cc2cc(c3OC2OC(CO)C(O)C(O)C2OC2CC(C)(NCCc3cccc(OCc4ccccc4)c3)C(O)C(C)O2)Oc2ccc(cc2Cl)C1O` (centres unmarked) [Compound 69, 3-benzyloxyphenethyl], for which the values for the MIC (with Entercoccus faecalis 276; in assay [2]) were 0.5 µg/mL (≈ 0.277 µM) and 8 µg/mL (≈ 4.44 µM), respectively.
`CNC(CC(C)C)C(=O)NC1C(=O)NC(CC(N)=O)C(=O)NC2C(=O)NC3C(=O)NC(C(=O)NC(C(=O)O)c4cc(O)cc(O)c4-c4cc3ccc4O)C(OC3CC(C)(N)C(O)C(C)O3)c3ccc(c(Cl)c3)Oc3cc2cc(c3OC2OC(CO)C(O)C(O)C2OC2CC(C)(NCc3ccc(Cl)c(C(=O)c4ccccc4)c3Cl)C(O)C(C)O2)Oc2ccc(cc2Cl)C1O` (centres unmarked) [Compound 133, 3-benzoyl-2,4-dichlorobenzyl]: the MIC amounted to 1 µg/mL (≈ 0.539 µM) in the assay with Entercoccus faecalis 276 and 2 µg/mL (≈ 1.08 µM) in assay [2].
`CNC(CC(C)C)C(=O)NC1C(=O)NC(CC(N)=O)C(=O)NC2C(=O)NC3C(=O)NC(C(=O)NC(C(=O)O)c4cc(O)cc(O)c4-c4cc3ccc4O)C(OC3CC(C)(N)C(O)C(C)O3)c3ccc(c(Cl)c3)Oc3cc2cc(c3OC2OC(CO)C(O)C(O)C2OC2CC(C)(NCc3ccc(OC(C)=O)cc3)C(O)C(C)O2)Oc2ccc(cc2Cl)C1O` (centres unmarked) [Compound 138, 4-acetoxybenzyl]: the MIC (in assay [1]; against Entercoccus faecalis 276) was no more than 0.06 µg/mL each time.
For the molecule `CNC(CC(C)C)C(=O)NC1C(=O)NC(CC(N)=O)C(=O)NC2C(=O)NC3C(=O)NC(C(=O)NC(C(=O)O)c4cc(O)cc(O)c4-c4cc3ccc4O)C(OC3CC(C)(N)C(O)C(C)O3)c3ccc(c(Cl)c3)Oc3cc2cc(c3OC2OC(CO)C(O)C(O)C2OC2CC(C)(NCc3ccc(-c4cccs4)cc3)C(O)C(C)O2)Oc2ccc(cc2Cl)C1O` (centres unmarked) [Compound 218, 4-[2-thienyl]benzyl], the MIC (in the assay on Entercoccus faecalis 276; in assay [2]) was no more than 0.06 µg/mL each time.
